Data as given in patent publication US9144239B2, “Macrocyclic picolinamides as fungicides” (DOW AGROSCIENCES LLC, priority 2012, dated 2015).
Where two headings read alike, the source gives them in different places.

Columns and labels:
[1] = system: Mycosphaerella graminicola; anamorph: Septoria tritici; assay: Fungicidal activity: leaf blotch of wheat (SEPTTR), wheat seedlings; format: in vivo; conditions: Zymoseptoria tritici, 100 ppm, wheat
Method: Evaluation of Fungicidal Activity: Leaf Blotch of Wheat (Mycosphaerella Graminicola; Anamorph: Septoria tritici; Bayer Code […]) Technical grades of materials were dissolved in acetone, which were then mixed with nine volumes of water containing 110 ppm Triton X-100. The fungicide solutions were applied onto wheat seedlings using an automated booth sprayer to run-off. All sprayed plants were allowed to air dry prior to further handling. Wheat plants (variety Yuma) were grown from seed in a greenhouse in 50% mineral soil/50% soil-less Metro mix until the first leaf was fully emerged, with 7-10 seedlings per pot. These plants were inoculated with an aqueous spore suspension of Septoria tritici either prior to or after fungicide treatments. After inoculation the plants were kept in 100% relative humidity (one day in a dark dew chamber followed by two to three days in a lighted dew chamber at 20° C.) to permit spores to germinate and infect the leaf. The plants were then transferred to a greenhouse set at 20° C. for disease to develop. When disease symptoms were fully expressed on the 1st leaves of untreated plants, infection levels were assessed on a scale of 0 to 100 percent disease severity. Percent disease control was calculated using the ratio of disease severity on treated plants relative to untreated plants.

[2] = system: Puccinia triticina; synonym: Puccinia recondita f. sp. tritici; assay: Fungicidal activity: wheat brown rust (PUCCRT), wheat seedlings; format: in vivo; conditions: 100 ppm, wheat
Method: Technical grades of materials were dissolved in acetone, which were then mixed with nine volumes of water containing 110 ppm Triton X-100. The fungicide solutions were applied onto wheat seedlings using an automated booth sprayer to run-off. All sprayed plants were allowed to air dry prior to further handling. Wheat plants (variety Yuma) were grown from seed in a greenhouse in 50% mineral soil/50% soil-less Metro mix until the first leaf was fully emerged, with 7-10 seedlings per pot. These plants were inoculated with an aqueous spore suspension of Septoria tritici either prior to or after fungicide treatments. After inoculation the plants were kept in 100% relative humidity (one day in a dark dew chamber followed by two to three days in a lighted dew chamber at 20° C.) to permit spores to germinate and infect the leaf. The plants were then transferred to a greenhouse set at 20° C. for disease to develop. When disease symptoms were fully expressed on the 1st leaves of untreated plants, infection levels were assessed on a scale of 0 to 100 percent disease severity. Percent disease control was calculated using the ratio of disease severity on treated plants relative to untreated plants. Evaluation of Fungicidal Activity: Wheat Brown Rust (Puccinia […]; Synonym: Puccinia recondita f. Sp. Tritici; Bayer Code PUCCRT) Wheat plants (variety Yuma) were grown from seed in a greenhouse in 50% mineral soil/50% soil-less Metro mix until the first leaf was fully emerged, with 7-10 seedlings per pot. These plants were inoculated with an aqueous spore suspension of Puccinia triticina either prior to or after fungicide treatments. After inoculation the plants were kept in a dark dew room at 22° C. with 100% relative humidity overnight to permit spores to germinate and infect the leaf. The plants were then transferred to a greenhouse set at 24° C. for disease to develop. Fungicide formulation, application and disease assessment followed the procedures as described in the Example A.

[3] = 24 h, 1 Day Protectant, read-out: Disease Control SEPTTR 1DP
[4] = 72 h, 3 Day Curative, read-out: Disease Control SEPTTR 3DC
[5] = 24 h, 1 Day Protectant, read-out: Disease Control PUCCRT 1DP
[6] = 72 h, 3 Day Curative, read-out: Disease Control PUCCRT 3DC

Compound: COc1ccnc(C(=O)N[C@H]2COC[C@H](OCC3CC3)[C@@H](OCC3CC3)[C@H](C)OC2=O)c1OCOC(C)=O [Compound 233]
- pest or weed control at 100 ppm [1, 3]: 80 to 100%
- pest or weed control at 100 ppm [1, 4]: 0 to 80%
- pest or weed control at 100 ppm [2, 5]: 80 to 100%
- pest or weed control at 100 ppm [2, 6]: 80 to 100%

Compound: COc1ccnc(C(=O)N[C@H]2COC[C@H](OCC(C)C)[C@@H](OCC(C)C)[C@@H](COCC(C)C)OC2=O)c1O [Compound 15, N-((3S,7S,8R,9R)-7,8-diisobutoxy-9-(isobutoxymethyl)-2-oxo-1,5-dioxonan-3-yl)-3-hydroxy-4-methoxypicolinamide]
- pest or weed control at 100 ppm [1, 3]: 0 to 80%
- pest or weed control at 100 ppm [2, 6]: 0 to 80%

Compound: COc1ccc(O[C@H]2[C@H](C)OC(=O)[C@@H](NC(=O)c3nccc(OC)c3O)COC[C@@H]2Oc2ccc(OC)cc2)cc1 [Compound 201]
- pest or weed control at 100 ppm [1, 3]: 80 to 100%
- pest or weed control at 100 ppm [1, 4]: 0 to 80%
- pest or weed control at 100 ppm [2, 5]: 80 to 100%

Compound: CCCO[C@H]1COC[C@H](NC(=O)c2nccc(OC)c2O)C(=O)O[C@@H](C)[C@@H]1Oc1ccccc1 [Compound 202]
- pest or weed control at 100 ppm [1, 3]: 80 to 100%
- pest or weed control at 100 ppm [1, 4]: 80 to 100%
- pest or weed control at 100 ppm [2, 5]: 80 to 100%
- pest or weed control at 100 ppm [2, 6]: 80 to 100%

Compound: COc1ccnc(C(=O)N[C@H]2COC[C@H](OC3CCCC3)[C@@H](Oc3ccccc3)[C@H](C)OC2=O)c1O [Compound 204]
- pest or weed control at 100 ppm [1, 3]: 80 to 100%
- pest or weed control at 100 ppm [1, 4]: 80 to 100%
- pest or weed control at 100 ppm [2, 5]: 80 to 100%
- pest or weed control at 100 ppm [2, 6]: 80 to 100%

Compound: COc1ccnc(C(=O)N[C@@H]2COC[C@@H](OCc3ccccc3)[C@H](OCc3ccccc3)[C@H](C)OC2=O)c1OCOC(C)=O [Compound 41]
- pest or weed control at 100 ppm [1, 3]: 0 to 80%
- pest or weed control at 100 ppm [1, 4]: 0 to 80%
- pest or weed control at 100 ppm [2, 5]: 0 to 80%

Compound: COc1ccnc(C(=O)N[C@H]2CO[C@@H](C)[C@H](OCC(C)C)[C@@H](OCC(C)C)COC2=O)c1OCOC(=O)C(C)C [Compound 7]
- pest or weed control at 100 ppm [1, 3]: 80 to 100%
- pest or weed control at 100 ppm [1, 4]: 80 to 100%
- pest or weed control at 100 ppm [2, 5]: 80 to 100%

Compound: CC[C@H]1OC(=O)[C@@H](NC(=O)c2nccc(OC)c2O)COC[C@H](OCC(C)C)[C@H]1OCC(C)C [Compound 19, N-((3S,7S,8S,9R)-9-ethyl-7,8-diisobutoxy-2-oxo-1,5-dioxonan-3-yl)-3-hydroxy-4-methoxypicolinamide]
- pest or weed control at 100 ppm [1, 3]: 0 to 80%
- pest or weed control at 100 ppm [1, 4]: 0 to 80%

Compound: COc1ccnc(C(=O)N[C@H]2COC[C@H](OCc3ccccc3)[C@@H](OCc3ccccc3)[C@@H](C)OC2=O)c1O [Compound 49]
- pest or weed control at 100 ppm [1, 3]: 0 to 80%
- pest or weed control at 100 ppm [1, 4]: 0 to 80%
- pest or weed control at 100 ppm [2, 5]: 0 to 80%
- pest or weed control at 100 ppm [2, 6]: 0 to 80%

Compound: COc1ccnc(C(=O)N[C@H]2COC[C@H](Oc3ccc(F)cc3)[C@@H](OCC(C)C)[C@H](C)OC2=O)c1O [Compound 207]
- pest or weed control at 100 ppm [1, 3]: 80 to 100%
- pest or weed control at 100 ppm [1, 4]: 80 to 100%
- pest or weed control at 100 ppm [2, 5]: 80 to 100%
- pest or weed control at 100 ppm [2, 6]: 80 to 100%

Compound: COc1ccnc(C(=O)N[C@H]2COC[C@H](Oc3ccc(C)cc3)[C@@H](Oc3ccc(C)cc3)[C@H](C)OC2=O)c1OCOC(C)=O [Compound 226]
- pest or weed control at 100 ppm [1, 3]: 80 to 100%
- pest or weed control at 100 ppm [1, 4]: 80 to 100%
- pest or weed control at 100 ppm [2, 5]: 80 to 100%
- pest or weed control at 100 ppm [2, 6]: 80 to 100%

Compound: COc1ccnc(C(=O)N[C@@H]2COC[C@H](OCC(C)C)[C@@H](OCC(C)C)[C@@H](COCC(C)C)OC2=O)c1OCOC(C)=O [Compound 18]
- pest or weed control at 100 ppm [1, 3]: 0 to 80%
- pest or weed control at 100 ppm [2, 5]: 0 to 80%
- pest or weed control at 100 ppm [2, 6]: 0 to 80%

Compound: COc1ccc(O[C@H]2[C@H](C)OC(=O)[C@@H](NC(=O)c3nccc(OC)c3OCOC(C)=O)COC[C@@H]2Oc2ccc(OC)cc2)cc1 [Compound 220]
- pest or weed control at 100 ppm [1, 3]: 80 to 100%
- pest or weed control at 100 ppm [1, 4]: 80 to 100%
- pest or weed control at 100 ppm [2, 5]: 80 to 100%
- pest or weed control at 100 ppm [2, 6]: 80 to 100%

Compound: CCCCO[C@H]1COC[C@H](NC(=O)c2nccc(OC)c2OCOC(C)=O)C(=O)O[C@@H](C)[C@@H]1OC [Compound 37]
- pest or weed control at 100 ppm [1, 3]: 0 to 80%
- pest or weed control at 100 ppm [1, 4]: 0 to 80%
- pest or weed control at 100 ppm [2, 5]: 80 to 100%
- pest or weed control at 100 ppm [2, 6]: 80 to 100%

Compound: C=C(C)CO[C@H]1COC[C@@H](NC(=O)c2nccc(OC)c2O)C(=O)OC[C@@H]1OCC(=C)C [Compound 9]
- pest or weed control at 100 ppm [1, 3]: 0 to 80%
- pest or weed control at 100 ppm [1, 4]: 0 to 80%
- pest or weed control at 100 ppm [2, 5]: 0 to 80%
- pest or weed control at 100 ppm [2, 6]: 0 to 80%
